Tests used:
Assay type in all cases: biochemical
HIV 115-mer [1] = test: PCR sterilization with pre-irradiated compound (photoproduct) added to PCR product
Experimental: AMDMIP photoproduct was made by irradiating AMDMIP (using the CE-III device) in 1 x Taq buffer (50 mM KCL, 2.5 mM MgCl2, 10 mM Tris, pH 8.5, 200 µg/ml gelatin) in a separate vessel for 15 minutes at room temperature (RT). Aliquots of AMDMIP photoproduct and the unirradiated compound were added (by pipetting) at 50, 100, 200 and 300 µg/ml to 1 µl aliquots of a 10^6 dilution of PCR product copies. PCR product was provided by a) preparing template, b) providing template, c) providing PCR reagents, d) providing polymerase, e) mixing PCR reagents, template, and polymerase to initiate PCR, f) cycling to synthesize PCR product. Step a): Template Preparation. The templates were derived from actual patient samples. Ficoll-Hypaque separated peripheral blood mononuclear cells (PBMCs) are prepared from individuals enrolled in a longitudinal AIDS study. Approximately 1 X 10^6 cells are added to 10 ml of RPMI containing 10% fetal calf serum. The cells are pelleted by centrifugation at 200 x g for 5 minutes and washed twice with 10 ml PBS. […]
Again, to evaluate the efficacy of this method of sterilization, a subsequent polymerase chain reaction was carried out for 30 cycles in the presence of α-^32P-dCTP. PCR product was then quantitated by running gels (see above), cutting the bands (detected by autoradiography) and counting the bands on a commercial scintillation counter. […]

human placental DNA = test: PCR amplification with unirradiated AMDMIP and DMSO co-solvent; conditions: for CPM of product bands: AMDMIP 200 µg/ml unirradiated
Experimental: In this example, the effect of DMSO on PCR amplification in the presence of high concentrations of sterilizing compound (AMDMIP) was investigated. Samples were prepared for PCR which contained 1 µg of human placental DNA either with or without (unirradiated) AMDMIP (200 µg/ml). The samples were amplified 30 cycles under standard PCR conditions in the presence of 0%, 1%, 5% or 10% DMSO. The reaction mix contained α-^32P-dCTP. Following amplification, the samples were analyzed by PAGE (data not shown).

HIV 115-mer [2] = test: Effect of unirradiated isopsoralen on PCR amplification; conditions: for Counts (CPM): unirradiated, 30 cycles, 42200 without AMDMIP
Experimental: To systematically evaluate the effect of the presence of increasing concentrations of isopsoralen on PCR, AMDMIP (0, 100, 200, 400 µg/ml) was added to 10^7 copies of HIV 115-mer as template. PCR was then carried out for 30 cycles in the presence of α-^32P-dCTP. The PCR product was run on denaturing polyacrylamide gel and autoradiographed. The bands were thereafter cut and counted.

For “4'-Aminomethyl-4,5'-dimethylisopsoralen [AMDMIP]”, the “sterilization of PCR (30 cycles, autoradiography)” value (HIV 115-mer [1]; unirradiated AMDMIP at the same concentration as the photoproduct) was “PCR product is clearly evident”, the “sterilization of PCR (30 cycles, autoradiography)” value (HIV 115-mer [1]; unirradiated compound at 50, 100, 200 and 300 µg/ml) was “no sterilization” and the “amplification with unirradiated AMDMIP” value (human placental DNA; 200 µg/ml, no DMSO, 30 cycles) was “virtually no detectable amplification product”. The “CPM of product bands” value (human placental DNA; 0% DMSO) was 2500 CPM, the “CPM of product bands” value (human placental DNA; 1% DMSO) was 2800 CPM and the “CPM of product bands” value (human placental DNA; 5% DMSO) was 86,000 CPM. The “CPM of product bands” value (human placental DNA; 10% DMSO) was 102,000 CPM, the “concentrations compatible with the PCR system” value (HIV 115-mer [2]; HIV 115-mer system) was “up to 400 µg/ml” and the “Counts (CPM)” value (HIV 115-mer [2]; [AMDMIP] 100 µg/ml) was 77200 CPM. The “Counts (CPM)” value (HIV 115-mer [2]; [AMDMIP] 200 µg/ml) was 77500 CPM and the “Counts (CPM)” value (HIV 115-mer [2]; [AMDMIP] 400 µg/ml) was 69400 CPM.
